{
  "source": "paper PMC3755730",
  "about": "(The Journal of neuroscience : the official journal of the …, 2013)",
  "key": {"[1]": {"molecular_target": "N2B (GluN2B), in N1/N2B (B-type) NMDA receptor (Mus musculus, UniProt Q01097)", "sequence (Q01097 27-1482, other chains not shown)": "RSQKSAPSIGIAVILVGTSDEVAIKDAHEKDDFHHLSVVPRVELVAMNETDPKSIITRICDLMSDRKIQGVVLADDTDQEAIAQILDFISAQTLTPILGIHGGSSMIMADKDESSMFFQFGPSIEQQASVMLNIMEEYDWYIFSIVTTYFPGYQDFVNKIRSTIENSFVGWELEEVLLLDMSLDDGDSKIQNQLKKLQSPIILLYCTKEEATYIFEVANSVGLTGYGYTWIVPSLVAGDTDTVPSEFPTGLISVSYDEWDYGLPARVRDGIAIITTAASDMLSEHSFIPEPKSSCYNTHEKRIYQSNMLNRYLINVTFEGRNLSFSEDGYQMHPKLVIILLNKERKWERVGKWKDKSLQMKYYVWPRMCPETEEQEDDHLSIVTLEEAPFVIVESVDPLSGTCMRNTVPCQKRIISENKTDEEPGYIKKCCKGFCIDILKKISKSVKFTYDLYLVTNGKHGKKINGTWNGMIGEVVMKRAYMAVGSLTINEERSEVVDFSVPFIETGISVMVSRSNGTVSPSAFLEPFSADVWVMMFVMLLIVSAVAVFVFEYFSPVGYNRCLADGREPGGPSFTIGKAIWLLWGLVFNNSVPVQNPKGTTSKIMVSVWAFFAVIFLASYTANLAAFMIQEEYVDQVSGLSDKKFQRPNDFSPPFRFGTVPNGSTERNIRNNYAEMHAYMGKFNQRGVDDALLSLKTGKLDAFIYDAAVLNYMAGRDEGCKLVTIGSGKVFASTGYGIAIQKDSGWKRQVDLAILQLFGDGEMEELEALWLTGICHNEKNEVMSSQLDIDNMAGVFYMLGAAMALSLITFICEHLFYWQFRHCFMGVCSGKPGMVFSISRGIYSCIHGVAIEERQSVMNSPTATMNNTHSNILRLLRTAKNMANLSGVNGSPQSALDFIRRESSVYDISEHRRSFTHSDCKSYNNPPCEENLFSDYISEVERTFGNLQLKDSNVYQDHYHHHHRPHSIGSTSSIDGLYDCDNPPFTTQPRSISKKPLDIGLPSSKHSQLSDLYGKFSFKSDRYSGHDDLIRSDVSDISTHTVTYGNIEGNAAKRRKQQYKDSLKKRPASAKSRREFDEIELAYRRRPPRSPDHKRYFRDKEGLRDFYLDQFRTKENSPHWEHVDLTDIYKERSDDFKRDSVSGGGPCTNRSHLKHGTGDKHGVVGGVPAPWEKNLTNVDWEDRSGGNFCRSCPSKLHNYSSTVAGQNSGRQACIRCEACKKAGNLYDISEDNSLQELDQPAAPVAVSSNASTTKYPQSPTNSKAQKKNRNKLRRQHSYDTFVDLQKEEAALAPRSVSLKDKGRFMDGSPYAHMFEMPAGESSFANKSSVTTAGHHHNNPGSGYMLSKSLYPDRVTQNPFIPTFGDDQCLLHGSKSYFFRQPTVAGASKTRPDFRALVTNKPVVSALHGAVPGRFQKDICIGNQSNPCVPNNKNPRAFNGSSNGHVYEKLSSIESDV", "test": "whole-cell patch clamp, EPSC dose-inhibition in N2A knockout neurons", "format": "cell-based"}, "[2]": {"molecular_target": "N2A (GluN2A), in N1/N2A (A-type) NMDA receptor (Mus musculus, UniProt P35436)", "sequence (P35436 23-1464, other chains not shown)": "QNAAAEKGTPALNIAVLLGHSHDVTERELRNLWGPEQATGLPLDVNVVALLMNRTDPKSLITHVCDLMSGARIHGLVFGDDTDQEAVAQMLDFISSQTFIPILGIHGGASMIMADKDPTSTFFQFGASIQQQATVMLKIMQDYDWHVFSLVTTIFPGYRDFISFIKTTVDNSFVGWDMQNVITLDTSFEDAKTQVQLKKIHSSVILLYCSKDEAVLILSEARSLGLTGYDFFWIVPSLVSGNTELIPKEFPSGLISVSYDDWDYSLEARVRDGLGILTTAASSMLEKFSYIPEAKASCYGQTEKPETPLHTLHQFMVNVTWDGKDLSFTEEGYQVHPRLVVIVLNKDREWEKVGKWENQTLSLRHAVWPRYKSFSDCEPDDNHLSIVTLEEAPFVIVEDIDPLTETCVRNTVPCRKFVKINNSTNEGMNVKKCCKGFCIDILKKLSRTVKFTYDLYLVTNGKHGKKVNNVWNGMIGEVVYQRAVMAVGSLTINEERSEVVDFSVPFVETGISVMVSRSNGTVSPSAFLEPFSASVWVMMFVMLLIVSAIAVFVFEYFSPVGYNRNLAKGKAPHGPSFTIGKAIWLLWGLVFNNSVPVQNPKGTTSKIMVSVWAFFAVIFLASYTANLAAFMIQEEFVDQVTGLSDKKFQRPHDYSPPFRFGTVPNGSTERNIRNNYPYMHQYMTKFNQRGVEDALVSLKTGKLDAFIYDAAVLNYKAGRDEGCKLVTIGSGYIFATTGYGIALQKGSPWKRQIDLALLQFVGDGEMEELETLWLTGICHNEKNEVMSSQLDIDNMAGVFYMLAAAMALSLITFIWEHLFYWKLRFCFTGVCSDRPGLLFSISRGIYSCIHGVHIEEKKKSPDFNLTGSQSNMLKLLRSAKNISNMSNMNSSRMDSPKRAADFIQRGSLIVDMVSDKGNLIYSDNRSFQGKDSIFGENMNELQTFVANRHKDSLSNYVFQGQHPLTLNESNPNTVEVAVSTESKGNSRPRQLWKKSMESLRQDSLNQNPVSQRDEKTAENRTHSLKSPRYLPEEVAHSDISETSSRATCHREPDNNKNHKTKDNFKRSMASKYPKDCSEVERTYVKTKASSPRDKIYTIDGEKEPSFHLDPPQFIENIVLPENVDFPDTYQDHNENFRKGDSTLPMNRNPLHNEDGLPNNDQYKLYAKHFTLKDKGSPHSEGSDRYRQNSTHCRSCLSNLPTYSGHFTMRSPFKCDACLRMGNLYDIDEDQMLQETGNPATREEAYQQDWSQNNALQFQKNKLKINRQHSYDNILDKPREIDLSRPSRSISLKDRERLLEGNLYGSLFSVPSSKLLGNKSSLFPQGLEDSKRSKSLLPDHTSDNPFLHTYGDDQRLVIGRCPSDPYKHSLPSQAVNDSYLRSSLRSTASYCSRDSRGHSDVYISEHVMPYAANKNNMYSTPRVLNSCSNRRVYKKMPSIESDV", "test": "whole-cell patch clamp, EPSC dose-inhibition in N2B knockout neurons", "format": "cell-based"}},
  "data": [
    {"compound": "C[C@H](N[C@@H](c1cccc2[nH]c(=O)c(=O)[nH]c12)P(=O)(O)O)c1ccc(Br)cc1", "note": "[NVP-AAM077]", "values": [
      {"measurement": "IC50", "setting": "[1]", "result": 119, "unit": "nM"},
      {"measurement": "IC50", "setting": "[2]", "result": 10, "unit": "nM"}
    ]}
  ]
}
